According to publication PMC8913318 (The Journal of Biological Chemistry, 2022):
Entries after “also recorded” stand apart in the source; their conditions may differ. Where two headings read alike, the source gives them in different places.

What was measured:
[1] = biological target: T1, CYP168A1 (Pseudomonas aeruginosa, UniProt Q9I107); test: Ligand Kd determination by optical difference spectroscopy; assay type: binding; details: for Δ absorbance maxima: 1 μM CYP168A1
T1 sequence (Q9I107 1-444): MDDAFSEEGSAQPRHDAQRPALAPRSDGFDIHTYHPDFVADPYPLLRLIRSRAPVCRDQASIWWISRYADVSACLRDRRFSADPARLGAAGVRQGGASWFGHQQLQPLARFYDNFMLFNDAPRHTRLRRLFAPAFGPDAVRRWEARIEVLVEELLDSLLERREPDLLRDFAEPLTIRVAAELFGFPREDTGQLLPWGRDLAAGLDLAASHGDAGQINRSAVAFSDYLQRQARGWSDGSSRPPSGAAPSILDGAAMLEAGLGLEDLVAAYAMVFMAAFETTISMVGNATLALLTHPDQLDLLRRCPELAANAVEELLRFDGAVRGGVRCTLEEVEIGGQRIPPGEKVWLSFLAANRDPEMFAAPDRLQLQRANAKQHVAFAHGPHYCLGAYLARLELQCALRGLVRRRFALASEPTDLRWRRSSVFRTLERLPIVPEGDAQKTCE

[2] = biological target: T1, CYP168A1; details: 19-HETE formation; substrate inhibition model
[3] = test system: P. aeruginosa; details: exposure of P. aeruginosa to arachidonic acid; cited from earlier work
[4] = biological target: T1, CYP168A1; test: biochemical; details: Ki ± SE, substrate inhibition constant
[5] = biological target: T1, CYP168A1; test: Recombinant CYP168A1 lauric acid in vitro metabolic assays; assay type: biochemical
[6] = ND = no spectral shift detected
[7] = lauric acid ω-1-hydroxylation, Hill fit (preferred model)

SMILES	Kd [1] [nM]	Δ absorbance maxima [1, 6] [AU]	also measured
CCCCC/C=C\C/C=C\C/C=C\C/C=C\CCCC(=O)O [Arachidonic acid]	960 ± 70	0.058	Vmax ± SE [2]: 220 pmol/min/nmol P450; increase in the minimum inhibitory concentration (MIC) for polymyxin B [3]: eightfold increase; Ki ([4]; 18-HETE formation): 16000 ± 8000 nM; Ki ([4]; 19-HETE formation): 13000 ± 8000 nM
Clc1ccccc1C(c1ccccc1)(c1ccccc1)n1ccnc1 [Clotrimazole]	3000 ± 400	0.053	–
CCCCCCCCCCCC(=O)O [Lauric acid]	–	0.013	Kd ([1]; read-out: Kd ± SE, 1 μM CYP168A1, 100 mM potassium phosphate pH 7.4, one binding site model, ND = no spectral shift detected): 1900 ± 300 nM; proportion of lauric acid metabolized to the ω-hydroxyl derivative ([5]; LC-MS analysis, spinach redox partners and NADPH): < 5%; n, cooperativity value for the substrate binding ([5]; lauric acid ω-1-hydroxylation, Hill fit): 1.5; S50 ± SE [5, 7]: 34 ± 2 µM; Vmax ± SE [5, 7]: 0.12 ± 0.004 nmol/min/nmol P450; Vmax ± SE ([5]; lauric acid ω-1-hydroxylation, Michaelis-Menten fit): 0.14 ± 0.006 nmol/min/nmol P450; Km ([5]; read-out: Km ± SE, lauric acid ω-1-hydroxylation to 11-hydroxylauric acid, Michaelis-Menten fit): 46 ± 5 µM
Clc1ccc(COC(Cn2ccnc2)c2ccc(Cl)cc2Cl)c(Cl)c1 (stereo not shown) [Miconazole]	880 ± 180	0.036	–
CCCCCCCCCCCCCCCC(=O)O [Palmitic acid]	210 ± 40	0.064	–
CCCCCCCCCCCCCCCCCC(=O)O [Stearic acid]	330 ± 70	0.078	–
CC(C)CCC[C@@H](C)[C@H]1CC[C@H]2[C@@H]3CC=C4C[C@@H](O)CC[C@]4(C)[C@H]3CC[C@]12C [cholesterol]	–	–	Spectral shift of the Soret band (difference spectrum type) ([1]; UV-visible titration of CYP168A1): no spectral changes; also recorded: did not exert any changes

Now from value to compound, other results behind:

Kd [1] [nM]	Δ absorbance maxima [1, 6] [AU]	SMILES	also measured
21000 ± 4000	0.016	CCCCCCCCCC(=O)O [Decanoic acid]	–
2500 ± 400	0.026	Clc1ccc(COC(Cn2ccnc2)c2ccc(Cl)cc2Cl)cc1 (stereo not shown) [Econazole]	–
830 ± 150	0.048	CCCCCCCCCCCCCC(=O)O [Myristic acid]	–
370 ± 70	0.099	CCCCCCCC/C=C\CCCCCCCC(=O)O [Oleic acid]	–
